Experimental data from paper PMC7126999 (Bioorganic & Medicinal Chemistry, 2015).
Values joined by “and” are separate entries in the source; they are usually repeats but may differ in a detail not shown here. Equal values may be shown once. Read-outs that look alike come from different tables or passages of the source.

Experiments:
HEL cells = experiment: Cytotoxicity, cell morphology; assay type: cell-based, human; conditions: exp. 1 and exp. 2
[1] = Cell viability of CrFK cells, formazan-based MTS assay; set-up: species or system feline; conditions: cat, CrFK cells
[2] = Cell viability of MDCK cells, formazan-based MTS assay; set-up: species or system canine; conditions: dog, MDCK cells
[3] = system: human cervix carcinoma HeLa cells; experiment: Inhibition of proliferation of human cervix carcinoma HeLa cells; assay type: cell-based; conditions: read-out: IC50 HeLa
[4] = system: three strains of herpes simplex virus; assay type: cell-based; conditions: HEL, read-out: EC50 against three strains of herpes simplex virus
HSV and Vaccinia viruses = experiment: microbe, parasite or virus in culture; assay type: cell-based, herpes simplex virus; vaccinia virus; conditions: Orthopoxvirus vaccinia, read-out: EC50 against HSV and Vaccinia viruses
Vaccinia virus = experiment: microbe, parasite or virus in culture; assay type: cell-based; conditions: for EC50: Orthopoxvirus vaccinia, HEL, read-out: EC50 Vaccinia virus
[5] = system: L1210, CEM and HeLa cell lines; experiment: Cytostatic activity on L1210, CEM and HeLa cell lines; assay type: cell-based, murine; human; conditions: fold more cytostatic than cis-9d / cis-9f
human lymphocyte CEM = experiment: Inhibition of proliferation of human T-lymphocyte CEM cells; assay type: cell-based; conditions: for cytostatic activity against CEM relative to 5-fluorouracil: fold more active than 5-fluorouracil; for IC50: read-out: IC50 CEM
cytomegalovirus = experiment: Antiviral activity against cytomegalovirus in HEL cells; assay type: cell-based, human cytomegalovirus (HCMV); conditions: read-out: EC50 toward cytomegalovirus, strain not specified
murine leukemia L1210 = experiment: Inhibition of proliferation of murine leukemia L1210 cells; assay type: cell-based; conditions: read-out: IC50 L1210; inhibit tumor cell proliferation by 50%
CrFK cells = experiment: Cell viability of CrFK cells, formazan-based MTS assay; set-up: species or system feline; conditions: read-out: CC50 CrFK; cell viability, colorimetric formazan-based MTS assay
MDCK cells = experiment: Cell viability of MDCK cells, formazan-based MTS assay; set-up: species or system canine; conditions: read-out: CC50 MDCK; cell viability, colorimetric formazan-based MTS assay
Punta Toro virus = experiment: microbe, parasite or virus in culture; assay type: cell-based; conditions: Vero, read-out: EC50 Punta Toro virus
Coxsackie virus B4 = assay type: cell-based; conditions: Vero cell cultures; DS-10.000 in μg/ml
[6] = Table 3 (cytomegalovirus assays)
[7] = inhibit tumor cell proliferation by 50%

With CCCN1C(=O)c2cccc3cc(NC(=O)[C@H]4C[C@@H](P(=O)(OCC)OCC)N(C)O4)cc(c23)C1=O (racemic) [cis-9a, Diethyl cis-5-(N-propylnaphthalimide-3-ylcarbamoyl)-2-methylisoxazolidin-3-yl-3-phosphonate] as the compound, how does the “Cytotoxicity Cell morphology MCC” value (HEL cells; [6]) read?
Its value is over 100 μM.

And the “Cytotoxicity Cell morphology MCC” value (HEL cells; Table 4 (VZV assays))?
The value was over 100 μM.

Which CC50 [1] does the source give for CCCCN1C(=O)c2cccc3cc(NC(=O)[C@H]4C[C@@H](P(=O)(OCC)OCC)N(C)O4)cc(c23)C1=O (racemic) [cis-9b, Diethyl cis-5-(N-butylnaphthalimide-3-ylcarbamoyl)-2-methylisoxazolidin-3-yl-3-phosphonate] here?
Its CC50 is over 100 µM.

What about the “Cytotoxicity Cell morphology MCC” value (HEL cells; [6]) of the same compound?
The value was 100 μM.

What about the “Cytotoxicity Cell morphology MCC” value (HEL cells; Table 4 (VZV assays)) of the same compound?
The value was over 100 μM.

What about the CC50 [2] of the same compound?
The CC50 was over 100 µM.

What about the IC50 ([3]; Homo sapiens, HeLa) of the same compound?
Its IC50 is 25 ± 3 µM.

Which “Cytotoxicity Cell morphology MCC” value (HEL cells; [6]) does the source give for CCOP(=O)(OCC)[C@@H]1C[C@H](C(=O)Nc2cc3c4c(cccc4c2)C(=O)N(CC(C)C)C3=O)ON1C (racemic) [cis-9c, Diethyl cis-5-(N-isobutylnaphthalimide-3-ylcarbamoyl)-2-methylisoxazolidin-3-yl-3-phosphonate] here?
The value was over 100 μM.

What about the “Cytotoxicity Cell morphology MCC” value (HEL cells; Table 4 (VZV assays)) of the same compound?
The value was over 100 μM.

For CCOP(=O)(OCC)[C@@H]1C[C@H](C(=O)Nc2cc3c4c(cccc4c2)C(=O)N(CCN(C)C)C3=O)ON1C (racemic) [cis-9d, Diethyl cis-5-[N-(2-dimethylamino)ethylnaphthalimide-3-ylcarbamoyl]-2-methylisoxazolidin-3-yl-3-phosphonate], which “Cytotoxicity Cell morphology MCC” value (HEL cells; [6]) is on record?
The value was over 100 μM.

What about the “Cytotoxicity Cell morphology MCC” value (HEL cells; Table 4 (VZV assays)) of the same compound?
The value was 100 μM.

What about the EC50 [4] of the same compound?
Its EC50 is 45 to 100 µM.

What about the EC50 (HSV and Vaccinia viruses) of the same compound?
The EC50 was 45 to 58 µM.

For CCOP(=O)(OCC)[C@@H]1C[C@H](C(=O)Nc2cc3c4c(cccc4c2)C(=O)N(CCN(CC)CC)C3=O)ON1C (racemic) [cis-9e, Diethyl cis-5-[N-(2-diethylamino)ethylnaphthalimide-3-ylcarbamoyl]-2-methylisoxazolidin-3-yl-3-phosphonate], which CC50 [2] is on record?
Its CC50 is over 100 µM.

What does the source list for CCOP(=O)(OCC)[C@@H]1C[C@H](C(=O)Nc2cc3c4c(cccc4c2)C(=O)N(CCN2CCCC2)C3=O)ON1C (racemic) [cis-9f, Diethyl cis-5-[N-(2-pirolidyn-1-yl)ethylnaphthalimide-3-ylcarbamoyl]-2-methylisoxazolidin-3-yl-3-phosphonate]?
Cytotoxicity Cell morphology MCC (HEL cells; [6]): >100 μM; Cytotoxicity Cell morphology MCC (HEL cells; Table 4 (VZV assays)): 100 μM and >100 μM; EC50 (Vaccinia virus): 45 to 100 µM

Which results are given for CCCN1C(=O)c2cccc3cc(NC(=O)[C@@H]4C[C@@H](P(=O)(OCC)OCC)N(C)O4)cc(c23)C1=O (racemic) [trans-9a, Diethyl trans-5-(N-propylnaphtalimide-3-ylcarbamoyl)-2-methylisoxazolidin-3-yl-3-phosphonate]?
CC50 [1]: > 100 µM; Cytotoxicity Cell morphology MCC (HEL cells; [6]): >100 μM; Cytotoxicity Cell morphology MCC (HEL cells; Table 4 (VZV assays)): >100 μM

For CCCCN1C(=O)c2cccc3cc(NC(=O)[C@@H]4C[C@@H](P(=O)(OCC)OCC)N(C)O4)cc(c23)C1=O (racemic) [trans-9b, Diethyl trans-5-(N-butylnaphthalimide-3-ylcarbamoyl)-2-methylisoxazolidin-3-yl-3-phosphonate], which “Cytotoxicity Cell morphology MCC” value (HEL cells; [6]) is on record?
The value was 100 μM.

And the “Cytotoxicity Cell morphology MCC” value (HEL cells; Table 4 (VZV assays))?
The value was over 100 μM.

With CCOP(=O)(OCC)[C@@H]1C[C@@H](C(=O)Nc2cc3c4c(cccc4c2)C(=O)N(CCN(C)C)C3=O)ON1C (racemic) [trans-9d, Diethyl trans-5-[N-(2-dimethylamino)ethylnaphthalimide-3-ylcarbamoyl]-2-methylisoxazolidin-3-yl-3-phosphonate] as the compound, how does the “Cytotoxicity Cell morphology MCC” value (HEL cells; [6]) read?
Its value is 100 μM.

What about the “Cytotoxicity Cell morphology MCC” value (HEL cells; Table 4 (VZV assays)) of the same compound?
Its value is over 100 μM.

What about the “cytostatic activity of trans-isomer relative to corresponding cis-isomer” value [5] of the same compound?
The value was “two-fold”.

And the EC50 [4]?
Its EC50 is 45 to 100 µM.

What about the EC50 (HSV and Vaccinia viruses) of the same compound?
The EC50 was 45 to 58 µM.

And the “cytostatic activity against CEM relative to 5-fluorouracil” value (human lymphocyte CEM)?
The value was “five-fold”.

With CCOP(=O)(OCC)[C@@H]1C[C@@H](C(=O)Nc2cc3c4c(cccc4c2)C(=O)N(CCN(CC)CC)C3=O)ON1C (racemic) [trans-9e, Diethyl trans-5-[N-(2-diethylamino)ethylnaphthalimide-3-ylcarbamoyl]-2-methylisoxazolidin-3-yl-3-phosphonate] as the compound, how does the CC50 [1] read?
Its CC50 is over 100 µM.

With CCOP(=O)(OCC)[C@@H]1C[C@@H](C(=O)Nc2cc3c4c(cccc4c2)C(=O)N(CCN2CCCC2)C3=O)ON1C (racemic) [trans-9f, Diethyl trans-5-[N-(2-pirolidyn-1-yl)ethylnaphthalimide-3-ylcarbamoyl]-2-methylisoxazolidin-3-yl-3-phosphonate] as the compound, how does the “Cytotoxicity Cell morphology MCC” value (HEL cells; [6]) read?
Its value is 100 μM.

And the “Cytotoxicity Cell morphology MCC” value (HEL cells; Table 4 (VZV assays))?
The value was 100 μM.

What about the “cytostatic activity of trans-isomer relative to corresponding cis-isomer” value [5] of the same compound?
Its value is “two-fold”.

What about the EC50 [4] of the same compound?
Its EC50 is 45 to 100 µM.

And the EC50 (HSV and Vaccinia viruses)?
The EC50 was 45 to 58 µM.

What about the EC50 (cytomegalovirus) of the same compound?
Its EC50 is 8.9 to 20 µM.

And the “cytostatic activity against CEM relative to 5-fluorouracil” value (human lymphocyte CEM)?
The value was “five-fold”.

Which results are given for CCOP(=O)(OCC)[C@H]1C[C@H](CN2C(=O)c3cccc4cccc(c34)C2=O)ON1C (relative stereo) [trans-10a/cis-10a (93:7), Diethyl trans-5-(1,3-dioxo-2,3-dihydro-1H-benzo[de]izochinolin-2-ylmethyl)-2-methylisoxazolidin-3-yl-3-phosphonate]?
IC50 (murine leukemia L1210): 180 ± 47 µM; CC50 (CrFK cells): > 100 µM; CC50 (MDCK cells): > 100 µM; IC50 [3, 7]: 77 ± 20 µM; IC50 (human lymphocyte CEM; [7]): 111 ± 14 µM

With CCOP(=O)(OCC)[C@H]1C[C@H](CN2C(=O)c3cccc4cc([N+](=O)[O-])cc(c34)C2=O)ON1C (relative stereo) [trans-10b/cis-10b (94:6), Diethyl trans-5-(5-nitro-1,3-dioxo-2,3-dihydro-1H-benzo[de]izochinolin-2-ylmethyl)-2-methylisoxazolidin-3-yl-3-phosphonate] as the compound, how does the IC50 (murine leukemia L1210) read?
Its IC50 is 34 ± 6 µM.

And the CC50 (CrFK cells)?
Its CC50 is over 100 µM.

What about the CC50 (MDCK cells) of the same compound?
The CC50 was over 100 µM.

And the IC50 [3, 7]?
Its IC50 is 20 ± 3 µM.

And the IC50 (human lymphocyte CEM; [7])?
The IC50 was 51 ± 6 µM.

For CCOP(=O)(OCC)[C@H]1C[C@H](CN2C(=O)c3cccc4cc(N)cc(c34)C2=O)ON1C (relative stereo) [trans-10c/cis-10c (93:7), Diethyl trans-5-(5-amino-1,3-dioxo-2,3-dihydro-1H-benzo[de]izochinolin-2-ylmethyl)-2-methylisoxazolidin-3-yl-3-phosphonate], which IC50 (murine leukemia L1210) is on record?
The IC50 was 95 ± 42 µM.

And the CC50 (CrFK cells)?
The CC50 was over 100 µM.

And the CC50 (MDCK cells)?
The CC50 was over 100 µM.

What about the IC50 [3, 7] of the same compound?
Its IC50 is 101 ± 58 µM.

And the IC50 (human lymphocyte CEM; [7])?
Its IC50 is 99 ± 2 µM.

With CCOP(=O)(OCC)[C@H]1C[C@H](CN2C(=O)c3cccc4cc(NC(C)=O)cc(c34)C2=O)ON1C (relative stereo) [trans-10d/cis-10d (93:7), Diethyl trans-5-(5-acetamido-1,3-dioxo-2,3-dihydro-1H-benzo[de]izochinolin-2-ylmethyl)-2-methylisoxazolidin-3-yl-3-phosphonate] as the compound, how does the IC50 (murine leukemia L1210) read?
Its IC50 is 136 ± 14 µM.

What about the CC50 (CrFK cells) of the same compound?
Its CC50 is over 100 µM.

What about the CC50 (MDCK cells) of the same compound?
The CC50 was over 100 µM.

What about the IC50 [3, 7] of the same compound?
The IC50 was 111 ± 3 µM.

What about the IC50 (human lymphocyte CEM; [7]) of the same compound?
The IC50 was 125 ± 4 µM.

For O=c1[nH]cc(F)c(=O)[nH]1 [5-Fluorouracil, reference compound], which IC50 ([3]; Homo sapiens, HeLa) is on record?
The IC50 was 0.54 ± 0.12 µM.

What about the IC50 (human lymphocyte CEM; Homo sapiens, Lymphocyte) of the same compound?
The IC50 was 18 ± 5 µM.

Which “activity against vaccinia virus, in words” value (Vaccinia virus) does the source give for Nc1nc2c(ncn2COCCO)c(=O)[nH]1 [Acyclovir, acyclovir] here?
Its value is “inactive”.

For O=c1[nH]c(=O)n([C@H]2C[C@H](O)[C@@H](CO)O2)cc1/C=C/Br [Brivudin, brivudin, reference compound], which “Cytotoxicity Cell morphology MCC” value (HEL cells; Table 4 (VZV assays)) is on record?
Its value is over 300 μM.

And the EC50 (Vaccinia virus)?
Its EC50 is 17 to 22 µM.

With Nc1ccn(C[C@@H](CO)OCP(=O)(O)O)c(=O)n1.O.O [Cidofovir, cidofovir, reference compound] as the compound, how does the “Cytotoxicity Cell morphology MCC” value (HEL cells; [6]) read?
Its value is over 350 μM.

With Nc1nc2c(ncn2COC(CO)CO)c(=O)[nH]1 [Ganciclovir, ganciclovir, reference compound] as the compound, how does the “Cytotoxicity Cell morphology MCC” value (HEL cells; [6]) read?
The value was over 350 μM.

What about the “activity against vaccinia virus, in words” value (Vaccinia virus) of the same compound?
The value was “inactive”.

Which EC50 (Punta Toro virus) does the source give for NC(=O)c1ncn([C@@H]2O[C@H](CO)[C@@H](O)[C@H]2O)n1 [Ribavirin, ribavirin] here?
Its EC50 is 250 µM.

With CCOP(=O)(OCC)[C@@H]1C[C@@H](C(=O)Nc2cc3c4c(cccc4c2)C(=O)N(CC(C)C)C3=O)ON1C [trans-9c, Diethyl trans-5-(N-isobutylnaphthalimide-3-ylcarbamoyl)-2-methylisoxazolidin-3-yl-3-phosphonate] as the compound, how does the CC50 [1] read?
The CC50 was over 100 µM.

What about the “Cytotoxicity Cell morphology MCC” value (HEL cells; [6]) of the same compound?
Its value is over 100 μM.

And the “Cytotoxicity Cell morphology MCC” value (HEL cells; Table 4 (VZV assays))?
The value was over 100 μM.

For dextran sulfate [DS-10.000], which “EC50 Coxsackie virus B4” value (Coxsackie virus B4) is on record?
Its value is over 100 µg/mL.
